Experimental data published in article PMC9781803, “Phenotypic and Target-Directed Screening Yields New Acaricidal Alternatives for the Control of Ticks” (Molecules, 2022).
Read-outs that look alike come from different tables or passages of the source. Marks after values point to notes of the source that are not given here.

What was measured:
[1] = system: fully engorged females of the Mozo susceptible strain of R. microplus; experiment: Adult Immersion Test (AIT); format: in vivo; details: for % of Mortality AIT: compounds 1.5 mM, 15 min immersion, 14 days
Method: This essay was performed based on Drummond et al., 1973, as each group of 5 fully engorged females of the Mozo susceptible strain of R. microplus was immersed in 50 mL tubes containing 10 mL of compounds at different concentrations (0.5, 1, 1.5, 2, 3.5 mM) for 15 min in four replicates. Four negative control groups were used (DMSO 10%). After immersion, the fully engorged females were lightly dried with absorbent paper. They were then placed in 100 mm disposable Petri dishes with their respective identification, and immediately incubated at 27 °C in an atmosphere with relative humidity (RH) of 85-90% for 14 days. […] The tubes carrying the eggs were closed with hydrophilic cotton, and were returned to the incubator chamber under the same conditions until the eggs hatched. The reproductive efficacy, as well as % control of each compound on R. microplus, was calculated according to published reports. The results were verified in two independent experiments.

[2] = system: R. microplus (Mozo strain) larvae; experiment: Larval Immersion Test (LIT); format: in vivo
Method: (§1) This assay was performed based on the method of Castro-Janer et al., 2011. Fully engorged females of R. microplus (Mozo strain) were incubated in Petri dishes at 27 °C and 85–90% relative humidity for 14 days. […] The tubes were incubated in the same conditions as described above. The larvae were ready for testing after 14 to 21 days from egg-hatching. For the test, the compounds were diluted in DMSO, and were later resuspended in distilled water, always using 15% DMSO of the final solution volume. The concentrations for the different compounds for the final immersion solution are 1 mg/mL for the extracts, and 1 mM for the compounds. […] For the immersion procedure, tubes containing the larvae were placed vertically, without the cotton plug, and the larvae were taken with a brush from the top of the tube, ensuring they were viable. A cluster with a diameter of 2 mm of larvae was collected with a brush, and was later immersed in each solution, as well as in both control solutions, for 10 min. After this time, the solutions were drained, and the larvae were placed in 8.5 cm × 7.5 cm Whatman No. 1 filter papers. The filters were folded in the middle of the 8.5 cm side, and closed with 3 bulldog clips, forming packets. These packets were incubated for 24 h, under the same conditions as described previously, and then the percent of mortality was determined, considering it as the % of the control.

[3] = target: T1, Homo sapiens triosephosphate isomerase (HsTIM) (Homo sapiens, UniProt P60174); experiment: Enzymatic activity of TIM, coupled enzyme assay; format: biochemical
T1 construct: made in house; host or cells: Escherichia coli
T1 sequence (P60174 whole entry): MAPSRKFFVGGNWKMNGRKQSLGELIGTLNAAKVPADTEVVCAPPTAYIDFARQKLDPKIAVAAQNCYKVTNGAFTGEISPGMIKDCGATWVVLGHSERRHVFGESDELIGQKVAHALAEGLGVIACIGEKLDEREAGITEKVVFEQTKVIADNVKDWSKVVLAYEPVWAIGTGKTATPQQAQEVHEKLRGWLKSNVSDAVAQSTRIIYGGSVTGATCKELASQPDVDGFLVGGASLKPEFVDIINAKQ
Method: (§2) R. microplus triosephosphate isomerase (RmTIM) and Homo sapiens triosephosphate isomerase (HsTIM) were expressed in Escherichia coli, and purified as previously described in the literature. Protein concentration was determined by absorbance measurements at 280 nm for RmTIM (ε = 33440 M^−1cm^−1) and HsTIM (ε = 33460 M^−1cm^−1). Enzymatic activity was determined following the reaction of the conversion of glyceraldehyde-3-phosphate to dihydroxyacetone phosphate in a coupled enzyme assay using α-glycerol-phosphate dehydrogenase. The decrease in absorbance at 340 nm was recorded in a multiplate reader Varioskan™ Flash Multimode Reader (Thermo Scientific^TM, Waltham, MA, USA) at 25 °C. The reaction mixture ([…], pH 7.4) contained 100 mM triethanolamine, 10 mM EDTA, 0.2 mM NADH, 1 mM glyceraldehyde-3-phosphate, and 0.9 units of α-glycerol-phosphate dehydrogenase. The reaction was initiated by the addition of 5 ng/mL of the TIM of interest. For the inhibition studies (incubation mixture), TIM was incubated at a concentration of 5 mg/mL in a buffer of pH 7.4 containing 100 mM triethanolamine, 10 mM EDTA, and 10% DMSO at 25 °C for 1 h. The mixture also contained the compounds, dissolved in DMSO, at final concentrations of 10 and 100 μM. After 1 h, 10 μL of the incubation mixture was added to the reaction mixture, to a final volume of 100 μL in a 96-well plate. None of the molecules tested here affected the activity of α-glycerol-phosphate dehydrogenase (checked in situ on the reaction mixture inhibited, with the addition of fresh α-glycerol-phosphate dehydrogenase and running the measurement again). The IC50 value was taken as the concentration of drug needed to reduce the enzymatic activity by 50%, and was analyzed using OriginLab 8.5 Corporation, Northampton, MA, USA, sigmoidal regression (% of enzymatic activity vs. the logarithm of the compound concentration). The tests were performed in triplicate in two independent experiments.

[4] = system: J774.1 murine macrophages; experiment: Cytotoxicity assay on murine macrophages (MTT); format: cell-based; details: for EC50: read-out: EC50 (µM) for Mammalian Cells; for IC50: J774.1, 48 h, read-out: IC50 (µM) Mammalian Cells
Method: J774.1 murine macrophages (ATCC, Rockville, MD, USA) were grown in a DMEM culture medium containing 4 mM L-glutamine, and supplemented with 10% FCS. The cells were seeded into a 96-well plate (5 × 10^4 cells in 200 µL culture medium) and incubated at 37 °C in a 5% CO2 atmosphere for 48 h, to allow cell adhesion before drug testing. Afterward, the cells were exposed for 48 h to the compounds (25–400 μM) or the vehicle (0.4% DMSO), and additional controls (cells in medium) were used in each test. Cell viability was then assessed by measuring the mitochondria-dependent reduction of MTT to formazan: for this, MTT in sterile PBS (0.2% glucose), pH 7.4, was added to the macrophages, to a final concentration of 0.1 mg/mL, and the cells were then incubated at 37 °C for 3 h. After removing the medium, the formazan crystals were dissolved in 180 μL of DMSO and 20 μL of MTT buffer (0.1 M glycine, 0.1 M NaCl, 0.5 mM EDTA, pH 10.5), and the absorbance was measured at 560 nm. The IC50 was defined as the drug concentration at which 50% of the cells were viable, relative to the control (no drug added), and was determined by analysis using OriginLab 8.5 Corporation, Northampton, MA, USA, sigmoidal regression (% of viable cells compared to the logarithm of the compound concentration). The tests were performed in triplicate in two independent experiments.

[5] = target: R. microplus triosephosphate isomerase (RmTIM) (Rhipicephalus microplus, UniProt A8B3A8); experiment: biochemical; details: for IC50: RmTIM, read-out: IC50
Chain of R. microplus triosephosphate isomerase (RmTIM) (A8B3A8 entry or part of it): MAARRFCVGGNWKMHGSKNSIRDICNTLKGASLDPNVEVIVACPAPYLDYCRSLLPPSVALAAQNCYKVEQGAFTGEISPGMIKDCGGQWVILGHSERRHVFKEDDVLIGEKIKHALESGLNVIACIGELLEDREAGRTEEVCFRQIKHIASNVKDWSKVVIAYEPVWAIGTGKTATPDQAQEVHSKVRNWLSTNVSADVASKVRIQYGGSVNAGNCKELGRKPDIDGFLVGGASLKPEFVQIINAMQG
Method: as §2

R. microplus = experiment: Acaricidal activity on R. microplus (LIT and AIT, overall statement); format: in vivo; details: LIT 1 mM and AIT 1.5 mM
Method: as §1, with “After immersion, the fully engorged females were lightly dried with absorbent paper. […] The tubes carrying the eggs were closed with hydrophilic cotton, and were returned to the incubator chamber under the same conditions until the eggs hatched. The reproductive efficacy, as well as % control of each compound on R. microplus, was calculated according to published reports. The results were verified in two independent experiments. This” for “This”, “2011.” for “2011. Fully engorged females of R. microplus (Mozo strain) were incubated in Petri dishes at 27 °C and 85–90% relative humidity for 14 days.”, “volume.” for “volume. The concentrations for the different compounds for the final immersion solution are 1 mg/mL for the extracts, and 1 mM for the compounds.”

[6] = system: embryonic cell line BME26; experiment: Phenotypic screening on BME26 cell cultures (MTT viability); format: cell-based, R. microplus; details: for inhibition at 100 µM: synthetic compounds at 100 μM, BME26, 24 h, read-out: % of Growth Inhibition; for IC50: BME26 cells, 24 h, MTT, read-out: IC50
Method: The embryonic cell line BME26 from R. microplus (Centro de Biotecnologia, Universidade Federal do Rio Grande do Sul, Porto Alegre, RS, Brazil) was grown as adherent monolayers in a complete medium, as described previously, which consisted of L-15B300 medium supplemented with 5% heat-inactivated Fetal Bovine Serum (FBS) (Gibco Co., Grand Island, NY), 10% Tryptose Phosphate Broth (TPB) (BD), penicillin (100 U/mL), streptomycin ([…], Gibco Co., Grand Island, NY, USA), and 0.1% bovine lipoprotein concentrate (ICN), (pH 7.2). The suspension of embryonic BME26 cells from R. microplus was seeded into 24-well plates (5 × 10^5 cells/well) to a final volume of 500 μL in a complete medium, and allowed to attach. After 24 h incubation at 34 °C, the extracts (100 µg/mL final concentration) and the compounds were added to the final concentrations indicated (1–100 µM), and 0.05% dimethylsulfoxide (DMSO) was used in the negative control wells. After 24 h of treatment, 50 μL of 3-(4,5-dimethylthiazol-2-yl)-2,5-diphenyltetrazolium bromide (MTT) prepared in serum-free medium (5 mg/mL) was added to each well. The media were discarded after 2 additional hours of incubation, and 1 mL of acid-isopropyl alcohol (0.15% HCl in isopropyl alcohol) was added to dissolve the formazan crystals. The mixture was transferred to 1.5 mL tubes, centrifuged at 6000× g for 15 min, and the clear supernatant was collected in new tubes for absorbance measurement at 570 nm using quartz cuvettes in a UVmini-1240 UV–vis spectrophotometer (Shimadzu, Japan). Absorbance values of the control treatment were used for normalization (100% viability). The activity was determined by analysis using OriginLab8.5® sigmoidal regression (% of viable cells compared to the logarithm of the compound concentration). The half-maximal inhibitory concentration (IC50), defined as the drug concentration at which 50% of the cells were viable relative to the control (no drug added), was used as a measurement of activity. These experiments were performed in triplicate for each compound.

[7] = system: ticks of the population of multiresistant field; experiment: Adult immersion test on multiresistant field population (Table S3); format: in vivo, R. microplus; details: preliminary study
[8] = compounds 1.0 mM, 10 min immersion, 24 h
[9] = Mus musculus, J774.1, cytotoxicity
[10] = 1 h incubation, read-out: % Inhibition of Enzymatic Activity of RmTIM

Molecule	% of Mortality LIT [2, 8] [%]	IC50 [5] [µM]	acaricidal activity (in words) (R. microplus)	inhibition at 10 µM [3] [%]	EC50 [4, 9] [µM]	inhibition at 10 µM [5, 10] [%]	inhibition at 100 µM [6] [%]	other results
Cc1ccc(/N=C/N(C)/C=N/c2ccc(C)cc2C)c(C)c1 [Amitraz, reference compound]	100	–	–	–	–	–	–	% of Mortality AIT [1]: 100%
COc1cc(/C=C/c2cc(/C=C/[c-]3cccc3)[nH]n2)ccc1O.[Fe+2].c1cc[cH-]c1 [Mar106, 2-Methoxy-4-((E)-2-(5-((E)-ferrocenylvinyl)-1H-pyrazol-3-yl)vinyl)phenol]	–	25 ± 4	did not show reproducible acaricidal activity	–	–	–	–	% Inhibition of Enzymatic Activity of HsTIM at 10 µM ([3]; at 10 µM): 0%; EC50 ([4]; cytotoxicity): > 25 µM; % Inhibition of Enzymatic Activity of RmTIM ([5]; at 100 µM (**), 1 h incubation): 69 ** %
O=C1/C(=C/c2ccccc2)CCC/C1=C\c1ccccc1 [compound 799]	–	< 10	did not show reproducible acaricidal activity	0	> 50	88	–	–
O=C1/C(=C2\Nc3ccccc3C2=O)Nc2ccccc21 [compound 879]	–	< 10	did not show reproducible acaricidal activity	0	> 50	95	9	–
O=C(/C=C/c1ccccn1)c1ccccc1O [compound 885]	100 ± 9	–	acaricidal potential against R. microplus similar to Amitraz	–	–	–	91	LC50 ([1]; adult females): 1000 µM; % of Mortality AIT [1]: 100 ± 9%; IC50 ([4]; Mus musculus): > 50 µM; IC50 [6]: 17 ± 4 µM; acaricidal activity on multiresistant strain (in words) [7]: had acaricidal activity
Clc1ccc(-c2csc(/N=C/C=C/c3ccco3)n2)cc1 [compound 910]	–	23 ± 2	did not show reproducible acaricidal activity	0	> 50	–	–	inhibition at 100 µM ([5]; at 100 µM (**), 1 h incubation, read-out: % Inhibition of Enzymatic Activity of RmTIM): 60%
Cc1c(/C=C/C(=O)c2ccccc2O)no[n+]1[O-] [compound 1253]	50 ± 8	–	acaricidal potential	–	–	–	95	IC50 ([4]; Mus musculus): > 50 µM; IC50 [6]: 12 ± 1 µM
O=C(N/N=C/C=C/c1ccco1)c1ccccn1 [compound 1367]	–	< 10	did not show reproducible acaricidal activity	0	> 50	82	–	–
O=C(/C=C/c1ccsc1)/C=C/c1ccsc1 [compound 1387]	–	< 10	did not show reproducible acaricidal activity	0	> 50	100	–	–
Ivermectin [reference compound]	–	–	–	–	–	–	–	% of Mortality LIT ([2]; commercial ivermectin control at 0.082 mM): 100%
